PubChem BioAssay (NCI)
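Five concentrations, 48 hours, 96-well plates. TGI is the concentration that stops growth completely.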

What was measured:
Test in all cases: growth of human tumour cells (NCI), 48 h
NCI-H522 lung = tested on: NCI-H522 lung
NCI-H460 lung = tested on: NCI-H460 lung
HL-60(TB) leukemia = tested on: HL-60(TB) leukemia
CCRF-CEM leukemia = tested on: CCRF-CEM leukemia
SK-MEL-28 melanoma = tested on: SK-MEL-28 melanoma
SN12C renal = tested on: SN12C renal
A498 renal = tested on: A498 renal
NCI-H226 lung = tested on: NCI-H226 lung
HCT-116 colon = tested on: HCT-116 colon
SNB-19 CNS = tested on: SNB-19 CNS

O=[N+]([O-])c1ccc(-[n+]2ccc3ccccc3c2)c([N+](=O)[O-])c1
TGI (NCI-H522 lung): 3.74 µM
TGI (NCI-H460 lung): 30.1 µM
TGI (HL-60(TB) leukemia): 3.71 µM
TGI (CCRF-CEM leukemia): 5.38 µM
TGI (SK-MEL-28 melanoma): 8.25 µM
TGI (SN12C renal): 6.82 µM
TGI (A498 renal): 28 µM
TGI (NCI-H226 lung): 43.6 µM
TGI (HCT-116 colon): 5.95 µM
TGI (SNB-19 CNS): 34.7 µM

NC(CNc1ccc(O)cc1)C(=O)O (centres undefined)
TGI (NCI-H522 lung): > 100 µM
TGI (NCI-H460 lung): > 100 µM
TGI (HL-60(TB) leukemia): 95.7 µM
TGI (CCRF-CEM leukemia): > 100 µM
TGI (SK-MEL-28 melanoma): > 100 µM
TGI (SN12C renal): > 100 µM
TGI (A498 renal): > 100 µM
TGI (NCI-H226 lung): > 100 µM
TGI (HCT-116 colon): > 100 µM
TGI (SNB-19 CNS): > 100 µM

Cc1oc2c(C)c3oc(=O)cc(C)c3cc2c1CN
TGI (NCI-H522 lung): > 100 µM
TGI (NCI-H460 lung): > 100 µM
TGI (HL-60(TB) leukemia): > 100 µM
TGI (CCRF-CEM leukemia): > 100 µM
TGI (SK-MEL-28 melanoma): > 100 µM
TGI (SN12C renal): > 100 µM
TGI (A498 renal): > 100 µM
TGI (NCI-H226 lung): 91.2 µM
TGI (HCT-116 colon): > 100 µM
TGI (SNB-19 CNS): > 100 µM

CC1=CC(=O)/C(=C/N2CCNC2=S)C(=O)O1
TGI (NCI-H522 lung): > 100 µM
TGI (NCI-H460 lung): > 100 µM
TGI (HL-60(TB) leukemia): > 100 µM
TGI (CCRF-CEM leukemia): > 100 µM
TGI (SN12C renal): > 100 µM
TGI (A498 renal): > 100 µM
TGI (NCI-H226 lung): > 100 µM
TGI (HCT-116 colon): > 100 µM
TGI (SNB-19 CNS): > 100 µM

C=C1[C@H](OCC(C)C)[C@@H](OC(=O)C(C)CC)[C@@H](O)C(C)(C)/C=C/[C@H](C)C(=O)[C@@]2(O)C[C@H](C)[C@H](O)[C@@H]2[C@H]1OC(=O)C(C)CC (some centres undefined)
TGI (NCI-H522 lung): > 20 µM
TGI (NCI-H460 lung): 8.18 µM
TGI (HL-60(TB) leukemia): 19 µM
TGI (CCRF-CEM leukemia): > 9.76 µM
TGI (SK-MEL-28 melanoma): > 20 µM
TGI (SN12C renal): > 20 µM
TGI (A498 renal): 12.2 µM
TGI (NCI-H226 lung): > 20 µM
TGI (HCT-116 colon): > 20 µM
TGI (SNB-19 CNS): > 20 µM

OC1(c2ccc(Cl)cc2)c2ccccc2C2=NCc3ccccc3CN21 (centres undefined)
TGI (NCI-H522 lung): 27.7 µM
TGI (NCI-H460 lung): 23.7 µM
TGI (HL-60(TB) leukemia): 17.4 µM
TGI (CCRF-CEM leukemia): > 69.6 µM
TGI (SK-MEL-28 melanoma): 9.58 µM
TGI (SN12C renal): > 52.4 µM
TGI (A498 renal): 30.2 µM
TGI (NCI-H226 lung): 20.8 µM
TGI (HCT-116 colon): 19.2 µM
TGI (SNB-19 CNS): 13.4 µM

O=C(CCC(=O)OCC1OC(O)(CC2OC(CO)C(O)C(O)C2O)C(O)C1O)OCc1ccccc1 (centres undefined)
TGI (NCI-H522 lung): > 100 µM
TGI (NCI-H460 lung): > 100 µM
TGI (HL-60(TB) leukemia): > 100 µM
TGI (CCRF-CEM leukemia): > 100 µM
TGI (SK-MEL-28 melanoma): > 100 µM
TGI (SN12C renal): > 100 µM
TGI (A498 renal): > 100 µM
TGI (NCI-H226 lung): > 100 µM
TGI (HCT-116 colon): > 100 µM
TGI (SNB-19 CNS): > 100 µM

CC(C)(C)OC(=O)NCCNC(=O)CN(CC(=O)O)C1CCCCC1N(CC(=O)O)CC(=O)O (centres undefined)
TGI (NCI-H522 lung): > 100 µM
TGI (NCI-H460 lung): > 100 µM
TGI (HL-60(TB) leukemia): > 100 µM
TGI (CCRF-CEM leukemia): > 100 µM
TGI (SK-MEL-28 melanoma): > 100 µM
TGI (SN12C renal): > 100 µM
TGI (A498 renal): > 100 µM
TGI (NCI-H226 lung): > 100 µM
TGI (HCT-116 colon): > 100 µM
TGI (SNB-19 CNS): > 100 µM
